Data: patent publication US20250108038A1 (priority 2023, published 2025)
Values joined by “and” are separate entries in the source; they are usually repeats but may differ in a detail not shown here. Equal values may be shown once. “Also recorded” adds a separate entry of the source. Read-outs that look alike come from different tables or passages of the source.

Assays:
[1] = Stability of test articles at different pH values (SGF, SIF, PBS); assay type: physicochemical; conditions: 0.1 mM, 37° C., 0-120 min
Method: FIG. 1A. […] (final concentration 0.1 mM) and the mixture was incubated at 37° C. for 120 min. total. […] Values represent mean+SEM of n=3 separate experiments.
FIG. 1B. Stability of Compound I-4 in 3 different fluid matrices modeling 3 different body fluids: SGF (gastric, pH 2.0), SIF (upper intestinal, pH 6.0), and PBS (systemic fluid, pH 7.4). […] (final concentration 0.1 mM) and the mixture was incubated at 37° C. for 120 min. total. […] Values represent mean+SEM of n=3 separate experiments.
10 mM stock solutions of test articles were prepared in DMSO. From this stock solution, a single concentration in a 10 μL aliquot was added to three fluid matrices: SGF at pH 2.0 (gastric), SIF at pH 6.0 (upper intestine), and PBS at pH 7.4 (systemic fluid). The final volume was 1 mL (0.1 mM).
LC-MS/MS analysis of test articles was performed on a Waters Acquity UPLC system in-line with a Waters TQ-S triple quadrupole mass spectrometer via an electrospray interface.
UPLC separation of samples was performed on a Waters BEH Phenyl 2.1×50 column at 40 C. Mobile phase was 0.1% formic acid in water for mobile phase A and 0.1% formic acid in acetonitrile as mobile phase B. Gradient elution was 1% B initial, 65% B to 95% B at 2 minutes, 95% B at 4 minutes, and 1% B at 4.1 minutes. Flow rate was 0.4 mL/min and 5 μL of samples was injected.

[2] = Method: Twelve male Wistar Han rats were divided into 4 groups, n=3 per group.
Dose solutions were prepared freshly on the day of study prior to dosing.
The animals were weighed immediately prior to dosing and the dose volume was calculated individually based the obtained body weight and the nominal dose volume. […] The test articles were administered either orally by gavage, or intraperitoneally by injection. The nominal dose volume was 10 mL/kg for both compounds and both routes.
Cage side observation was performed before and after dosing as well as at each scheduled sample collection. The observation included appearance, posture, behavior, morbidity and mortality. Abnormal findings, if any, were recorded in the study notebook and communicated with study director, veterinarian, and Supernus if necessary.
Approximately 100 μL blood was collected at each scheduled time point from jugular veins. The actual sample collection time was within 1 min. of the nominal time for collections prior to or at 1 hour, and within 5% of the nominal time for collections post 1 hour.
The blood samples were placed in pre-labeled micro-centrifuge tubes containing K2EDTA as anticoagulant and kept on ice, and then were processed to plasma within 30 minutes of collection by centrifugation at 4° C., 3000 g for 5 minutes, and then stored at −70±10° C. until analysis by LC-MS/MS.
Plasma concentrations below the LLOQ prior to Tmax were set to zero, and those after Tmax were excluded from PK calculation. The nominal dose and the nominal sample collection time were used for the calculation. The values of plasma concentrations and PK parameters are reported to three significant figures. The average values of each treatment group are presented as mean±SD.

[3] = single IP Compound I-19 4.061 mg/kg, male Wistar Han rats, individual animals
[4] = single IP Compound I-19 4.061 mg/kg, male Wistar Han rats, mean
[5] = single PO Compound I-19 4.061 mg/kg, male Wistar Han rats, individual animals
[6] = single PO Compound I-19 4.061 mg/kg, male Wistar Han rats, mean

## Clc1ccc(C2(OCC3OCCO3)c3ccccc3C3=NCCN32)cc1 (stereo not shown) [Compound I-19]
In vitro; 0 min
  Compound A formed (Aa/Ai): 0.63
In vitro; 2.0 μM, 0 min
  % Remaining: 100%
  Aa/Ai Mean (N = 2): 1.80
In vitro; 2.0 μM, 5 min
  % Remaining: 97.6%
  Aa/Ai Mean (N = 2): 1.76
In vitro; 2.0 μM, 15 min
  % Remaining: 97.2%
  Aa/Ai Mean (N = 2): 1.75
In vitro; 2.0 μM, 30 min
  % Remaining: 93.9%
  Aa/Ai Mean (N = 2): 1.69
In vitro; 2.0 μM, 60 min
  Aa/Ai Mean (N = 2): 1.25
In vitro; 2.0 μM, 60 min incubation
  T1/2: 1.95 h
In vitro; 5 min
  Compound A formed (Aa/Ai): 0.65
In vitro; 15 min
  Compound A formed (Aa/Ai): 0.63
In vitro; 30 min
  Compound A formed (Aa/Ai): 0.53
In vitro; 60 min
  Compound A formed (Aa/Ai): 0.38
[1]; PBS (systemic fluid, pH 7.4)
  Stability (% parent compound remaining): time-dependent decrease in the amount; also recorded: some lack of stability
[1]; SGF (gastric, pH 2.0)
  Stability (% parent compound remaining): time-dependent decrease in the LCMSMS peak area until 20 min; also recorded: some lack of stability over 15 min
[2]; 0.500 h, single IP Compound I-19 4.061 mg/kg, male Wistar Han rats, individual animals
  plasma concentration of Compound I-19: 150 ng/mL and 193 ng/mL and 136 ng/mL
[2]; 0.500 h, single IP Compound I-19 4.061 mg/kg, male Wistar Han rats, mean
  plasma concentration of Compound I-19: 160 ng/mL
[2]; 2.00 h, single IP Compound I-19 4.061 mg/kg, male Wistar Han rats, individual animals
  plasma concentration of Compound I-19: 126 ng/mL and 144 ng/mL and 188 ng/mL
[2]; 2.00 h, single IP Compound I-19 4.061 mg/kg, male Wistar Han rats, mean
  plasma concentration of Compound I-19: 153 ng/mL
[2]; 2.00 h, single PO Compound I-19 4.061 mg/kg, male Wistar Han rats, individual animals
  plasma concentration of Compound I-19: BQL
[2]; 4.00 h, single IP Compound I-19 4.061 mg/kg, male Wistar Han rats, individual animals
  plasma concentration of Compound I-19: 73.3 ng/mL and 69.9 ng/mL and 91.6 ng/mL
[2]; 4.00 h, single IP Compound I-19 4.061 mg/kg, male Wistar Han rats, mean
  plasma concentration of Compound I-19: 78.3 ng/mL
[2]; 4.00 h, single PO Compound I-19 4.061 mg/kg, male Wistar Han rats, individual animals
  plasma concentration of Compound I-19: BQL
[2]; 8.00 h, single IP Compound I-19 4.061 mg/kg, male Wistar Han rats, individual animals
  plasma concentration of Compound I-19: 6.11 ng/mL and 10.1 ng/mL and 10.7 ng/mL
[2]; 8.00 h, single IP Compound I-19 4.061 mg/kg, male Wistar Han rats, mean
  plasma concentration of Compound I-19: 8.97 ng/mL
[2]; 8.00 h, single PO Compound I-19 4.061 mg/kg, male Wistar Han rats, individual animals
  plasma concentration of Compound I-19: BQL
[2]; 24.0 h, single IP Compound I-19 4.061 mg/kg, male Wistar Han rats, individual animals
  plasma concentration of Compound I-19: BQL
[2]; 24.0 h, single PO Compound I-19 4.061 mg/kg, male Wistar Han rats, individual animals
  plasma concentration of Compound I-19: BQL
[2]; […] h, single IP Compound I-19 4.061 mg/kg, male Wistar Han rats, mean
  plasma concentration of Compound I-19: 168 ng/mL
[2]; male Wistar Han rats, PO and IP, administered dosages
  Clinical observation (tolerability): well tolerated
[2]; rat, in vivo, ip
  T1/2 of the administered compound: 1.43 ± 0.107 h
[2]; [3]
  AUC0-inf of Compound I-19: 584 ng·h/mL and 660 ng·h/mL and 771 ng·h/mL
  AUC0-last of Compound I-19: 572 ng·h/mL and 637 ng·h/mL and 749 ng·h/mL
  Cmax of Compound I-19: 158 ng/mL and 193 ng/mL and 192 ng/mL
  MRT0-inf of Compound I-19: 2.63 h and 2.73 h and 2.80 h
  MRT0-last of Compound I-19: 2.48 h and 2.47 h and 2.59 h
  T1/2 of Compound I-19: 1.33 h and 1.54 h and 1.43 h
  Tlast of Compound I-19: 8.00 h
  Tmax of Compound I-19: 0.500 h
[2]; [4]
  AUC0-inf of Compound I-19: 672 ng·h/mL
  AUC0-last of Compound I-19: 653 ng·h/mL
  Cmax of Compound I-19: 181 ng/mL
  MRT0-inf of Compound I-19: 2.72 h
  MRT0-last of Compound I-19: 2.51 h
  T1/2 of Compound I-19: 1.43 h
  Tlast of Compound I-19: 8.00 h
  Tmax of Compound I-19: 0.583 h
[2]; [5]
  AUC0-last of Compound I-19: 0.510 ng·h/mL and 0.285 ng·h/mL
  Cmax of Compound I-19: 1.02 ng/mL and 1.14 ng/mL
  MRT0-last of Compound I-19: 1.00 h and 0.500 h
  Tlast of Compound I-19: 1.00 h and 0.500 h
  Tmax of Compound I-19: 0.500 h
[2]; [6]
  AUC0-last of Compound I-19: 0.398 ng·h/mL
  Cmax of Compound I-19: 1.08 ng/mL
  MRT0-last of Compound I-19: 0.750 h
  Tlast of Compound I-19: 0.750 h
